Patent US6022696A, “Methods of identifying agonists or antagonists of angiotensin IV” (Washington State University Research Foundation, priority 1998, dated 2000)
Where two headings read alike, the source gives them in different places. Non-standard residues stand in square brackets, D forms with d. Residues, ends and D or L forms follow the SMILES beside them. Nle = CCCC[C@H](N)C(=O)O

Tests used:
rat [1] = experiment: Systemic arterial blood pressure during renal artery infusion
rat [2] = conditions: in vivo

Compound | effect on arterial blood pressure (rat [1]) | effect on arterial blood pressure (rat [2])
CC[C@H](C)[C@H](NC(=O)[C@H](Cc1ccc(O)cc1)NC(=O)[C@@H](N)CCCCN)C(=O)N[C@@H](Cc1c[nH]cn1)C(=O)N1CCC[C@H]1C(=O)N[C@@H](Cc1ccccc1)C(=O)O [KYIHPF] (H-KYIHPF-OH) | no significant changes in arterial blood pressure | –
CCCC[C@H](N)C(=O)N[C@@H](Cc1ccc(O)cc1)C(=O)N[C@H](C(=O)N[C@@H](Cc1cnc[nH]1)C(=O)N1CCC[C@H]1C(=O)N[C@@H](Cc1ccccc1)C(=O)O)[C@@H](C)CC [NleYIHPF] (H-[Nle]YIHPF-OH) | – | no effect on mean arterial pressure
